# Experimental data published in patent US5393765A, “Pharmaceutical compositions with constant erosion volume for zero order controlled release” (Hoffmann-La Roche Inc., priority 1993, dated 1995).
# Structures can show the parent of a compound that is named as a salt. Where two headings read alike, the source gives them in different places.
# What was measured:
# [1] = Solubility of the exemplary drugs in water at 25° C.; format: physicochemical
# Procedure: Solubility of the exemplary drugs in water at 25° C. is as follows: […]
# [2] = Drug release from the erodible matrix, USP dissolution test (Basket or Paddle Method); format: physicochemical; settings: in the given dissolution medium; FIGS. 2-7 and 9-15; FIG. 8 (chlorpheniramine maleate composition with the polymer, water, 37° C., Basket Method, 100 rpm)
# Procedure: The evaluation of drug release from the erodible matrix was performed using the USP dissolution test procedure with either the Basket or Paddle Method at the speed as specified. […] Briefly, in both methods, one tablet is placed in the appropriate apparatus described below containing the specified amount of dissolution medium and the stirring element is started. The amount of drug in solution is determined by the UV spectrophotometric method as is known in the art. The assembly used in the Basket Method consists of the following: a covered vessel made of glass with nominal capacity 1000 mL; a motor; a metallic drive shaft; and a cylindrical basket. The vessel containing 900 mL of the specified dissolution medium (i.e., water, 1% nonionic surfactant Emulphor ON-870 in phosphate buffer, pH 7.5 or 3% sodium lauryl sulfate, pH 9.0) is partially immersed in a suitable water bath and equilibrated at 37°±0.5° C. A fitted cover may be used to retard evaporation. The shaft is positioned so that its axis is not more than 2 mm at any point from the vertical axis of the vessel and rotates smoothly and without significant wobble. A speed-regulating device is used that allows the shaft rotation speed to be selected and maintained at the specified rate. The recommended basket speed is 100 rpm. […] The drug analysis was determined by UV spectrophotometry.
# [3] = in water at 25° C., read-out: Solubility
SMILES,"solubility [1, 3]",other results
"Cc1nnc2n1-c1sc(C#CCn3c(=O)c4ccccc4c4ccccc43)cc1C(c1ccccc1Cl)=NC2 [5-[3-[4-(2-Chlorophenyl)-9-methyl-6H-thieno[3,2-f][1,2,4]triazolo[4,3-a][1,4]diazepin-2-yl]-2-propynyl]phenanthrydin-6(5H)-one]",–,solubility ([1]; water): 0.01 µg/mL
"CCC(CC)(CC(=O)Nc1cccc(/C=C/c2nc(C3CCC3)cs2)c1)C(=O)O [(E)-4-[[3-[2-(4-Cyclobutyl-2-thiazolyl)ethenyl]phenyl]amino]-2,2-diethyl-4-oxobutanoic acid]",< 2 µg/mL,–
"COc1ccc([C@@H]2Sc3c(ccc4ccccc34)N(CCN(C)C)C(=O)[C@@H]2OC(C)=O)cc1 (single isomer, unassigned) [(+)-cis-3-(Acetyloxy)-2,3-dihydro-2-(4-methoxyphenyl)-5-[2-(dimethylamino)ethyl]naphtho[1,2-b]-1,4-thiazepin-4(5H)-one]",80000 µg/mL,–
"O=C(CCCCCCCCc1cccnc1)N1CCC(C=C(c2ccccc2)c2ccccc2)CC1 [4-(2,2-Diphenylethenyl)-1-[1-oxo-9-(3-pyridinyl)nonyl]piperidine]",0.182 µg/mL,–
"CNC1=Nc2ccc(Cl)cc2C(c2ccc[nH]2)=NC1 [7-Chloro-N-methyl-5-(1H-pyrrol-2-yl)-3H-1,4-benzodiazepin-2-amine]",1.5 µg/mL,–
CN(C)CCC(c1ccc(Cl)cc1)c1ccccn1 (stereo not drawn) [chlorpheniramine maleate],–,Release profile (zero order) [2]: does not produce a zero-order release profile
